Results on eight compounds are retold here after the supplement of paper PMC11061612.

In assay [1] the test system is SIMA (Neuroblastoma). The assay is described as follows: Bliss excess, mean over the matrix (fraction); higher = more synergy. In a few lines: (§1)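 After 24 hours at 37°C and 5% CO2 in 1536-well plates, cells in DMEM/F12 or RPMI plus 10% FBS received two-drug dose matrices for 72 hours. Viability came from CellTiter-Glo 2.0 luminescence and was scaled as inhibition, anchored at 0 by vehicle wells and at 1 by blank wells. Combination Emax is taken as the second-highest inhibition in the matrix, and Bliss excess as the observed combination effect less EA + EB − EA·EB, with EA and EB the single-agent effects.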

In assay [2] the test system is NCI-H2461 (Mesothelioma). Described as above. In short, it runs like this: as §1
The test system of assay [3] is K5 (Thyroid Gland Carcinoma). The description is as above. In a few lines:
as §1

For assay [4], the system named is CAPAN-1 (Pancreatic Carcinoma). The description is as above. In short, it runs like this:
as §1

Assay [5] concerns RH-18 (Rhabdomyosarcoma). The description is as above. In short, it runs like this: as §1
Assay [6] relates to NB14 (Neuroblastoma). Described as above. In a few lines:
as §1

The test system of assay [7] is NCI-H747 (Colorectal Carcinoma). Described as above. In short, it runs like this:
as §1

In assay [8] the test system is MDA-MB-468 (Breast Carcinoma). The description is as above. In a few lines: as §1
The test system of assay [9] is RPMI-6666 (Non-Cancerous). The assay is described as above. In a few lines: as §1
The subject of assay [10] is SH-4 (Melanoma). Described as above. In a few lines: as §1
Assay [11] deals with SIMA (Neuroblastoma). The assay can be described thus: combination Emax (second highest fraction inhibited in the dose matrix, 72 h); higher = more inhibition; extreme values may be limits of the assay. In short, it runs like this:
as §1

In assay [12] the test system is RH-18 (Rhabdomyosarcoma). Described as above. In a few lines: as §1
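For Bliss excess, mean over the matrix in this document: after 72 h of two-drug dosing.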

Consider `CCc1c2c(nc3ccc(O)cc13)-c1cc3c(c(=O)n1C2)COC(=O)[C@]3(O)CC` [SN-38] + CN(C)CCCOc1ccc(-c2ccc3ncc4c(c3c2)n(C2CCOCC2)c(=O)n4C)cn1 [AZD0156] (first compound max 0.3 µM, 7x7, partner max 1 µM), for which the Bliss excess is -0.0753 in assay [1]; -0.0236 in assay [2]; -0.0797 in assay [3]; -0.0341 in assay [4]; -0.0477 in [5]; 0.0191 in [6]. Besides, the Bliss excess in assay [7] was 0.0019; in assay [8], 0.0309; in assay [9], -0.0196; in assay [10], -0.0552. Besides, the “combination Emax” value in [11] is 0.907; in assay [12], 0.459.
Consider `COc1cccc(OCCCN)c1-c1cc(Nc2cnc(C#N)cn2)n[nH]1` [Prexasertib] + C=CCn1c(=O)c2cnc(Nc3ccc(N4CCN(C)CC4)cc3)nc2n1-c1cccc(C(C)(C)O)n1 [AZD1775] (first compound max 1 µM, partner max 1 µM), for which the Bliss excess was 0.0181 in assay [1]; -0.0573 in assay [2]; 0.0807 in assay [3]; -0.0069 in assay [4]; 0.154 in [5]; 0.0486 in assay [6]. Further, the Bliss excess in assay [7] is 0.0623; in [8] it was 0.0399; in assay [9], 0.0119; in [10] it was 0.0591. In addition, the “combination Emax” value in assay [11] came out at 0.993; in assay [12], 0.492.
Turning to `CCN(CCO)CCCOc1ccc2c(Nc3cc(CC(=O)Nc4cccc(F)c4)[nH]n3)ncnc2c1` [AZD2811] + C[C@@H]1COCCN1C2=NC(=NC(=C2)C3(CC3)[S@](=N)(=O)C)C4=C5C=CNC5=NC=C4 [AZD6738] (first compound max 1 µM, 7x7, partner max 10 µM), the Bliss excess in [1] was -0.0332; in [2], -0.0728; in assay [3], -0.086; in assay [4], -0.0939; in assay [5] it was -0.0336; in [6] it was -0.0888. In addition, the Bliss excess is -0.044 in [7], -0.0977 in assay [8], -0.0653 in assay [9] and -0.0474 in assay [10]. Also, the “combination Emax” value in [11] is 0.766; in assay [12] it was 0.344.
Consider `C[C@@H]1COCCN1c1cc(C2([S@](C)(=N)=O)CC2)nc(-c2ccnc3[nH]ccc23)n1` [AZD6738] + O=C(c1cc(Cc2n[nH]c(=O)c3ccccc23)ccc1F)N1CCN(C(=O)C2CC2)CC1 [Olaparib] (first compound max 10 µM, 7x7, partner max 10 µM), for which the Bliss excess in assay [1] was -0.0498; in assay [2] it was -0.0214; in [3], -0.0175; in assay [4], -0.0125; in [5], 0.012; in [6], -0.0072. The Bliss excess in [7] is 0.0096; in assay [8], -0.0227; in assay [9] it was -0.0839; in assay [10], 0.0189. Moreover, the “combination Emax” value was 0.642 in assay [11] and 0.406 in assay [12].
Turning to `COc1cccc(OCCCN)c1-c1cc(Nc2cnc(C#N)cn2)n[nH]1` [Prexasertib] + C[C@@H]1COCCN1C2=NC(=NC(=C2)C3(CC3)[S@](=N)(=O)C)C4=C5C=CNC5=NC=C4 [AZD6738] (first compound max 1 µM, 7x7, partner max 10 µM), the Bliss excess in [1] is -0.0198; in assay [2] it was -0.0344; in [3], 0.0037; in [4] it was -0.0436; in [5], 0.076; in [6], 0.0092. In addition, the Bliss excess in assay [7] is -0.0294; in assay [8] it was -0.0106; in assay [9] it was -0.0467; in assay [10] it was -0.0786. Also, the “combination Emax” value in assay [11] came to 0.989; in [12], 0.475.
For the compound `COc1cccc2c1C(=O)c1c(O)c3c(c(O)c1C2=O)C[C@@](O)(C(=O)CO)C[C@@H]3O[C@H]1C[C@H](N)[C@H](O)[C@H](C)O1` [Doxorubicin] + Cc1cc2ncnn2cc1Nc1ncc2c(n1)n(C1CCOCC1)c(=O)n2C [AZD7648] (first compound max 1 µM, 7x7, partner max 10 µM), the Bliss excess is 0.0859 in assay [1]; -0.0108 in [2]; 0.0319 in [3]; 0.0038 in assay [4]; 0.0463 in assay [5]; 0.0203 in assay [6]. In addition, the Bliss excess in [7] is 0.0388; in [8], 0.0309; in [9] it was 0.103; in assay [10] it was 0.024. Further, the “combination Emax” value in assay [11] amounted to 0.854; in assay [12], 0.76.
Regarding `COc1cccc(OCCCN)c1-c1cc(Nc2cnc(C#N)cn2)n[nH]1` [Prexasertib] + Cc1cc2ncnn2cc1Nc1ncc2c(n1)n(C1CCOCC1)c(=O)n2C [AZD7648] (first compound max 1 µM, 7x7, partner max 10 µM), the Bliss excess in assay [1] is -0.035; in assay [2] it was -0.0428; in [3], -0.0405; in assay [4], -0.0274; in [5], 0.0455; in assay [6], -0.0047. The Bliss excess is 0.0085 in [7], 0.0262 in [8], -0.0261 in assay [9] and -0.0545 in assay [10]. The “combination Emax” value in assay [11] is 0.992; in assay [12] it was 0.382.
As to `C=CCn1c(=O)c2cnc(Nc3ccc(N4CCN(C)CC4)cc3)nc2n1-c1cccc(C(C)(C)O)n1` [AZD1775] + C[C@@H]1COCCN1C2=NC(=NC(=C2)C3(CC3)[S@](=N)(=O)C)C4=C5C=CNC5=NC=C4 [AZD6738] (first compound max 1 µM, partner max 10 µM), the Bliss excess in assay [1] was 0.0547; in [2], -0.081; in [3] it was -0.0453; in [4], -0.0951; in assay [5], -0.0014; in assay [6] it was 0.0462. Also, the Bliss excess is -0.0002 in assay [7], 0.0344 in assay [8], -0.0165 in assay [9] and -0.0746 in [10]. For the same compound, the “combination Emax” value was determined as 0.906 in assay [11] and 0.625 in assay [12].
